Laboratory results: patent publication US4701440A (Hoechst Aktiengesellschaft, priority 1983, dated 1987)

Key:
[1] = cited from earlier work
[2] = biological test, activity compared with unmodified insulin

Substance	biological activity compared with unmodified insulin [2]	also measured
Porcine insulin-Arg^B31 OH	–	activity relative to unmodified porcine insulin ([1]; according to Chance, Excerpta Medica Int. Congress Series No. 231): 62%
insulin-Arg^B31 -Arg^B32 -OH	approximately the same level as that of unmodified insulin	–
insulin-Arg^B31 -OH	approximately the same level as that of unmodified insulin	–
proinsulin: proinsulin, insulin precursor containing the C-peptide	–	biological activity as fraction of that of insulin ([1]; intact proinsulin vs insulin): about 1/8
